Assay results as given in patent US20230108125A1, “SMALL MOLECULE COMPOUNDS” (Apertor Pharmaceuticals, Inc., priority 2021, published 2023).

The molecules below were run on Saccharomyces cerevisiae BY4742 (assay: Anti-yeast activity assay (minimum inhibitory concentration)). Conditions: YPD media, 30° C., 16 hours, lowest concentration with no obvious culture growth, triplicate, read-out: MIC against Saccharomyces cerevisiae BY4742.
Type: cell-based
Experimental: A single colony of Saccharomyces cerevisiae BY4742 was inoculated into 2 mL YPD media in a 5 mL falcon tube to grow overnight at 30° C. The overnight culture was inoculated into 5 mL YPD media in a glass tube at OD600=0.1, and the new culture was grown at 30° C. until OD600 reached 0.5. The culture was then diluted to OD600=0.01 and aliquoted into 96-well plates at 100 μL per well. The compound was dissolved in ethanol at 75 μM. Three-fold serial dilutions were conducted for the Compound 10 times using ethanol, respectively. 4 μL of each concentration compound solution was added and mixed with 384 μL YPD media. 100 μL of the YPD media solutions were mixed with the Saccharomyces cerevisiae cultures in 96-well plates by pipette, respectively. The plates were incubated at 30° C. for 16 hours without shaking. The lowest Compound concentrations in wells that have no obvious culture growth were defined as the minimum inhibitory concentrations (MICs). The assays were conducted in triplicate.

Row | Structure (SMILES) | MIC
1 | CO[C@H]1C[C@@H]2CC[C@@H](C)[C@@](O)(O2)C(=O)C(=O)N2CCCC[C@H]2C(=O)O[C@H]([C@H](C)C[C@@H]2CC[C@@H](O)[C@H](OC)C2)CC(=O)C/C=C(\C)[C@@H](O)[C@@H](OC)C(=O)[C@H](C)C[C@H](C)/C=C/C=C/C=C/1C [Compound 10, (3S,7E,9R,10R,12R,14S,15E,17E,19E,21S,23S,26R,27R,34aS)-9,27-dihydroxy-3-((R)-1-((1S,3R,4R)-4-hydroxy-3-methoxycyclohexyl)propan-2-yl)-10,21-dimethoxy-8,12,14,20,26-pentamethyl-9,10,12,13,14,21,22,23,24,25,26,27,32,33,34,34a-hexadecahydro-3H-23,27-epoxypyrido[2,1-c][1]oxa[4]azacyclohentriacontine-1,5,11,28,29(4H,6H,31H)-pentaone] | < 0.0556 µM
2 | CO[C@H]1C[C@@H]2CCC[C@@](O)(O2)C(=O)C(=O)N2CCCC[C@H]2C(=O)O[C@H]([C@H](C)C[C@@H]2CC[C@@H](O)[C@H](OC)C2)CC(=O)[C@H](C)/C=C(\C)[C@@H](O)[C@@H](OC)C(=O)[C@H](C)C[C@H](C)/C=C/C=C/C=C/1C [Compound 12, (3S,6R,7E,9R,10R,12R,14S,15E,17E,19E,21S,23S,27R,34aS)-9,27-dihydroxy-3-((R)-1-((1S,3R,4R)-4-hydroxy-3-methoxycyclohexyl)propan-2-yl)-10,21-dimethoxy-6,8,12,14,20-pentamethyl-9,10,12,13,14,21,22,23,24,25,26,27,32,33,34,34a-hexadecahydro-3H-23,27-epoxypyrido[2,1-c][1]oxa[4]azacyclohentriacontine-1,5,11,28,29(4H,6H,31H)-pentaone] | < 0.0556 µM
3 | CO[C@@H]1/C(C)=C/C=C/C=C/[C@@H](C)C[C@@H](C)C(=O)[C@H](OC)[C@H](O)/C(C)=C/[C@@H](C)C(=O)C[C@@H]([C@H](C)C[C@@H]2CC[C@@H](O)[C@H](OC)C2)OC(=O)[C@@H]2CCCCN2C(=O)C(=O)[C@]2(O)O[C@@H](CC[C@H]2C)[C@@H]1C [Compound 15, (3S,6R,7E,9R,10R,12R,14S,15E,17E,19E,21S,22S,23S,26R,27R,34aS)-9,27-dihydroxy-3-((R)-1-((1S,3R,4R)-4-hydroxy-3-methoxycyclohexyl)propan-2-yl)-10,21-dimethoxy-6,8,12,14,20,22,26-heptamethyl-9,10,12,13,14,21,22,23,24,25,26,27,32,33,34,34a-hexadecahydro-3H-23,27-epoxypyrido[2,1-c][1]oxa[4]azacyclohentriacontine-1,5,11,28,29(4H,6H,31H)-pentaone] | < 0.0556 µM
